Data published in the ASAP Discovery antiviral challenge data (2025).
Converted amounts (≈) assume the structure as drawn. “And” between values parts separate entries of the source, which are not always exact repeats. Equal values may be shown once.

How the values were obtained:
[1] = mouse; liver_microsomes
[2] = human; liver_microsomes
[3] = not given; remark: listed apart in the source
[4] = mdck_mdr1

CC(C)[C@H](Nc1ncnc2[nH]c(-c3cnn(CCC(N)=O)c3)cc12)c1ccc2c(c1)OCCO2 (racemic)
microsomal CLint [1]: 62 µL/min/mg | microsomal CLint [2]: 99 µL/min/mg | solubility kinetic: 236 µM (≈ 109 µg/mL) | logD [3]: 3 | Papp [4]: 14.6 nm/s

CNC(=O)c1cc2c(N[C@H](c3ccc4c(c3)S(=O)(=O)CCC4)C(C)C)ncnc2[nH]1 (racemic)
microsomal CLint [1]: 46 µL/min/mg | microsomal CLint [2]: 77 µL/min/mg | solubility kinetic: 369 µM (≈ 158 µg/mL) | logD [3]: 2.4 | Papp [4]: 4.6 nm/s

Cc1nn(C)cc1-c1cc2c(N[C@H](c3ccc4c(c3)S(=O)(=O)CCC4)C(C)C)ncnc2[nH]1 (single isomer, unassigned)
microsomal CLint [1]: 202 µL/min/mg and 390 µL/min/mg | microsomal CLint [2]: 273 µL/min/mg and 251 µL/min/mg | solubility kinetic: 65 µM and 63 µM | logD [3]: 3.1 and 3.4 | Papp [4]: 43.6 nm/s and 36.9 nm/s

CC(C)(C)[C@H](Nc1ncnc2[nH]c(-c3cnn(CC(N)=O)c3)cc12)c1ccc2c(n1)OCCO2 (racemic)
microsomal CLint [1]: 31 µL/min/mg | microsomal CLint [2]: 36 µL/min/mg | solubility kinetic: 48 µM (≈ 22.2 µg/mL) | logD [3]: 2.7 | Papp [4]: 8.22 nm/s

CC(C)(C)[C@H](Nc1ncnc2[nH]c(-c3cnn(CC(N)=O)c3)cc12)c1ccc2c(c1)OCCO2 (single isomer, unassigned)
microsomal CLint [1]: 44 µL/min/mg and 39 µL/min/mg | microsomal CLint [2]: 153 µL/min/mg and 100 µL/min/mg | solubility kinetic: 89 µM and 104 µM | logD [3]: 3 and 3.1 | Papp [4]: 3.64 nm/s and 10.1 nm/s

CC(C)[C@H](Nc1ncnc2[nH]ccc12)c1ccc2c(c1)S(=O)(=O)CCC2 (racemic)
microsomal CLint [1]: 138 µL/min/mg | microsomal CLint [2]: 37 µL/min/mg | solubility kinetic: 385 µM (≈ 143 µg/mL) | logD [3]: 2.5 | Papp [4]: 33 nm/s

Cn1ncc(-c2cc3c(N[C@H](c4ccc5c(n4)OCCO5)C(C)(C)C)ncnc3[nH]2)c1C#N (single isomer, unassigned)
microsomal CLint [1]: 226 µL/min/mg | microsomal CLint [2]: 283 µL/min/mg | solubility kinetic: 24 µM (≈ 10.7 µg/mL) | logD [3]: 3.3 | Papp [4]: 140 nm/s

CNC(=O)c1c[nH]c2ncnc(N[C@H](c3ccc4c(c3)NC(=O)CO4)C(C)C)c12 (racemic)
microsomal CLint [1]: 113 µL/min/mg | microsomal CLint [2]: 86 µL/min/mg | solubility kinetic: 28 µM (≈ 11 µg/mL) | logD [3]: 3.2 | Papp [4]: 42.6 nm/s

CC(C)[C@H](Nc1ncnc2[nH]ccc12)c1ccc2c(c1)S(=O)(=O)CCO2 (racemic)
microsomal CLint [1]: 69 µL/min/mg | microsomal CLint [2]: 18 µL/min/mg | solubility kinetic: 372 µM (≈ 139 µg/mL) | logD [3]: 2.6 | Papp [4]: 44 nm/s

NCc1cccc(NC(=O)[C@@H](NC(=O)OCc2ccccc2)c2ccc(OCc3ccccc3)cc2)c1
microsomal CLint [1]: 1 µL/min/mg | microsomal CLint [2]: 11 µL/min/mg | solubility kinetic: 23 µM (≈ 11.4 µg/mL) | logD [3]: 3.2 | Papp [4]: 15.3 nm/s

NCc1cccc(CNC(=O)[C@H](NC(=O)OCc2ccccc2)c2ccc(OCc3ccccc3)cc2)c1 (racemic)
microsomal CLint [1]: 2.73 µL/min/mg | microsomal CLint [2]: 3.89 µL/min/mg | solubility kinetic: 78 µM (≈ 39.7 µg/mL) | logD [3]: 2.7 | Papp [4]: 14.4 nm/s

CC(C)[C@H](Nc1ncnc2[nH]c(-c3cnn(C)c3C#N)cc12)c1ccc2c(n1)NC(=O)CO2 (racemic)
microsomal CLint [1]: 145 µL/min/mg | microsomal CLint [2]: 70 µL/min/mg | solubility kinetic: 29 µM (≈ 12.9 µg/mL) | logD [3]: 3.7 | Papp [4]: 98.3 nm/s

CC(C)[C@H](Nc1ncnc2[nH]c(-c3cnn(C)c3C#N)cc12)c1ccc2c(c1)OCCO2
microsomal CLint [1]: 257 µL/min/mg | microsomal CLint [2]: 706 µL/min/mg | solubility kinetic: 15 µM (≈ 6.44 µg/mL) | logD [3]: 3.3 | Papp [4]: 55.6 nm/s

CC(C)[C@H](Nc1ncnc2[nH]c(-c3cnn(C)c3)cc12)c1ccc2c(c1)S(=O)(=O)CCC2 (racemic)
microsomal CLint [1]: 155 µL/min/mg | microsomal CLint [2]: 141 µL/min/mg | solubility kinetic: 94 µM (≈ 42.4 µg/mL) | logD [3]: 3.3 | Papp [4]: 17.3 nm/s

CC(C)[C@H](Nc1ncnc2[nH]c(-c3cncc(S(C)(=O)=O)c3)cc12)c1ccc2c(c1)S(=O)(=O)CCC2 (racemic)
microsomal CLint [1]: 272 µL/min/mg | microsomal CLint [2]: 635 µL/min/mg | solubility kinetic: 31 µM (≈ 16.3 µg/mL) | logD [3]: 3.1 | Papp [4]: 4.91 nm/s

CC(C)[C@H](Nc1ncnc2[nH]c(-c3ccc4nnn(C)c4c3)cc12)c1ccc2c(c1)S(=O)(=O)CCC2 (racemic)
microsomal CLint [1]: 219 µL/min/mg | microsomal CLint [2]: 752 µL/min/mg | solubility kinetic: 6 µM (≈ 3.01 µg/mL) | logD [3]: 3.4 | Papp [4]: 8.27 nm/s

O=C(O)c1cc(Cl)ccc1NS(=O)(=O)c1ccc(Oc2ccccc2Cl)cc1
microsomal CLint [1]: 13 µL/min/mg | microsomal CLint [2]: 155 µL/min/mg | solubility kinetic: 369 µM (≈ 162 µg/mL) | logD [3]: 3 | Papp [4]: 40.1 nm/s

CC(C)(C)[C@H](Nc1ncnc2[nH]c(-c3cnn(CC(N)=O)c3)cc12)c1ccc2c(n1)OCCO2 (single isomer, unassigned)
microsomal CLint [1]: 10 µL/min/mg and 30 µL/min/mg | microsomal CLint [2]: 27 µL/min/mg and 42 µL/min/mg | solubility kinetic: 372 µM and 390 µM | logD [3]: 2.7 and 2.9 | Papp [4]: 10.2 nm/s and 15.3 nm/s

COc1cc(Cc2c(-c3ccc(F)cc3)noc2C)nc(N2CCNCC2)n1
microsomal CLint [1]: 33 µL/min/mg | microsomal CLint [2]: 15 µL/min/mg | solubility kinetic: 325 µM (≈ 125 µg/mL) | logD [3]: 2.1 | Papp [4]: 47.8 nm/s

COCCNC(=O)c1c[nH]c2ncnc(N[C@H](c3ccc4c(c3)S(=O)(=O)CCC4)C(C)C)c12 (racemic)
microsomal CLint [1]: 888 µL/min/mg | microsomal CLint [2]: 540 µL/min/mg | solubility kinetic: 378 µM (≈ 178 µg/mL) | logD [3]: 2.8 | Papp [4]: 16.2 nm/s

CC(C)[C@H](Nc1ncnc2[nH]c(-c3cnn(CC(N)=O)c3)cc12)c1ccc2c(c1)OCCO2 (racemic)
microsomal CLint [1]: 41 µL/min/mg | microsomal CLint [2]: 99 µL/min/mg | solubility kinetic: 345 µM (≈ 154 µg/mL) | logD [3]: 0.9 | Papp [4]: 9 nm/s

CC(C)[C@H](Nc1ncnc2[nH]c(-c3cnn(CC(N)=O)c3)cc12)c1ccc2c(c1)NC(=O)CO2 (racemic)
microsomal CLint [1]: 11 µL/min/mg | microsomal CLint [2]: 17 µL/min/mg | solubility kinetic: 25 µM (≈ 11.5 µg/mL) | logD [3]: 2.5 | Papp [4]: 13.6 nm/s

CC(C)[C@H](Nc1ncnc2[nH]c(-c3cnn(CC(=O)N(C)C)c3)cc12)c1ccc2c(c1)S(=O)(=O)CCC2 (racemic)
microsomal CLint [1]: 68 µL/min/mg | microsomal CLint [2]: 106 µL/min/mg | solubility kinetic: 38 µM (≈ 19.8 µg/mL) | logD [3]: 2.1 | Papp [4]: 6.7 nm/s

O=C(Nc1ccc2c(c1)CNC2)c1cccc2[nH]c(C(F)(F)F)cc12
microsomal CLint [1]: 12.7 µL/min/mg | microsomal CLint [2]: 14.1 µL/min/mg | solubility kinetic: 372 µM (≈ 128 µg/mL) | logD [3]: 1.5 | Papp [4]: 41 nm/s

CCNC(=O)c1cc2c(N[C@H](c3ccc4c(c3)S(=O)(=O)CCO4)C(C)C)ncnc2[nH]1 (racemic)
microsomal CLint [1]: 26 µL/min/mg | microsomal CLint [2]: 64 µL/min/mg | solubility kinetic: 328 µM (≈ 145 µg/mL) | logD [3]: 2.9 | Papp [4]: 4.71 nm/s

C[C@H](C(=O)O)[C@H](NC(=O)c1ncnc2[nH]ccc12)c1ccc(Br)cc1 (mixture of isomers)
microsomal CLint [1]: 4 µL/min/mg | microsomal CLint [2]: 5 µL/min/mg | solubility kinetic: 386 µM | logD [3]: 0.5 | Papp [4]: 14 nm/s

COc1ccc2c(c1)CCN(c1ncnc3[nH]ccc13)[C@H]2C(C)C (racemic)
microsomal CLint [1]: 321 µL/min/mg | microsomal CLint [2]: 60 µL/min/mg | solubility kinetic: 14 µM (≈ 4.51 µg/mL) | logD [3]: 4.33 | Papp [4]: 70 nm/s

CC(C)[C@H](Nc1ncnc2[nH]c(-c3cnn(C)c3C#N)cc12)c1ccc2c(n1)NC(=O)CO2 (single isomer, unassigned)
microsomal CLint [1]: 131 µL/min/mg and 189 µL/min/mg | microsomal CLint [2]: 137 µL/min/mg and 51 µL/min/mg | solubility kinetic: 28 µM (≈ 12.4 µg/mL) | logD [3]: 3.7 | Papp [4]: 93.5 nm/s and 96.4 nm/s

CC(C)[C@H](Nc1ncnc2[nH]c(-c3cnn(C)c3C#N)cc12)c1ccc2c(n1)OCCO2 (racemic)
microsomal CLint [1]: 139 µL/min/mg | microsomal CLint [2]: 56 µL/min/mg | solubility kinetic: 89 µM (≈ 38.3 µg/mL) | logD [3]: 3.4 | Papp [4]: 128 nm/s

CNC(=O)Cn1cc(-c2cc3c(N[C@H](c4ccc5c(c4)OCCO5)C(C)C)ncnc3[nH]2)cn1 (racemic)
microsomal CLint [1]: 47 µL/min/mg | microsomal CLint [2]: 119 µL/min/mg | solubility kinetic: 289 µM (≈ 133 µg/mL) | logD [3]: 2.9 | Papp [4]: 19.4 nm/s

CC(C)[C@H](Nc1ncnc2[nH]c(-c3cnn(C)c3)cc12)c1ccc2c(c1)S(=O)(=O)CCC2 (single isomer, unassigned)
microsomal CLint [1]: 255 µL/min/mg and 140 µL/min/mg | microsomal CLint [2]: 169 µL/min/mg and 405 µL/min/mg | solubility kinetic: 111 µM (≈ 50 µg/mL) | logD [3]: 2.9 and 3.2 | Papp [4]: 11.8 nm/s and 15 nm/s

COc1ccc(C(=O)Nc2cccc(/C=C3/C(=O)NC(=O)c4ccccc43)c2)cc1
microsomal CLint [1]: 127 µL/min/mg | microsomal CLint [2]: 180 µL/min/mg | solubility kinetic: 23 µM (≈ 9.16 µg/mL) | logD [3]: 3.6 | Papp [4]: 23.3 nm/s

C[C@H](C(=O)O)[C@@H](NC(=O)c1ncnc2[nH]ccc12)c1ccc(Br)cc1 (single isomer, unassigned)
microsomal CLint [1]: 4 µL/min/mg | microsomal CLint [2]: 3 µL/min/mg | solubility kinetic: 358 µM (≈ 144 µg/mL) | logD [3]: 0.6 | Papp [4]: 6.82 nm/s

CCNC(=O)c1cc2c(N[C@H](c3ccc4c(c3)S(=O)(=O)NCC4)C(C)C)ncnc2[nH]1 (racemic)
microsomal CLint [1]: 45 µL/min/mg | microsomal CLint [2]: 85 µL/min/mg | solubility kinetic: 344 µM (≈ 152 µg/mL) | logD [3]: 2.6 | Papp [4]: 19.6 nm/s

COCCNC(=O)[C@H](Nc1ccc2c(c1)CNC2)c1cc(Cl)cc(C2CC2)c1 (single isomer, unassigned)
microsomal CLint [1]: 11.7 µL/min/mg | microsomal CLint [2]: 19.7 µL/min/mg | solubility kinetic: 320 µM (≈ 128 µg/mL) | logD [3]: 1 | Papp [4]: 14 nm/s

Cn1ncc(-c2cc3c(N[C@H](c4ccc5c(c4)OCCO5)C(C)(C)C)ncnc3[nH]2)c1C#N (racemic)
microsomal CLint [1]: 199 µL/min/mg | microsomal CLint [2]: 85 µL/min/mg | solubility kinetic: 25 µM (≈ 11.1 µg/mL) | logD [3]: 2.9 | Papp [4]: 27.9 nm/s

CNC(=O)c1cc2c(N[C@H](c3ccc4c(c3)OCCO4)C(C)C)ncnc2[nH]1 (racemic)
microsomal CLint [1]: 55 µL/min/mg | microsomal CLint [2]: 79 µL/min/mg | solubility kinetic: 380 µM (≈ 145 µg/mL) | logD [3]: 2.76 | Papp [4]: 19.6 nm/s

CCNC(=O)c1cc2c(N[C@H](c3ccc4c(c3)S(=O)(=O)CCC4)C(C)C)ncnc2[nH]1 (racemic)
microsomal CLint [1]: 85 µL/min/mg | microsomal CLint [2]: 108 µL/min/mg | solubility kinetic: 336 µM (≈ 148 µg/mL) | logD [3]: 2.8 | Papp [4]: 7 nm/s

CNC(=O)Cn1cc(-c2cc3c(N[C@H](c4ccc5c(c4)S(=O)(=O)CCC5)C(C)C)ncnc3[nH]2)cn1 (racemic)
microsomal CLint [1]: 77 µL/min/mg | microsomal CLint [2]: 94 µL/min/mg | solubility kinetic: 306 µM (≈ 155 µg/mL) | logD [3]: 2.4 | Papp [4]: 4.7 nm/s

COc1ccc([C@H](Cc2nnn[nH]2)NC(=O)c2ncnc3[nH]ccc23)cc1 (single isomer, unassigned)
microsomal CLint [1]: 7 µL/min/mg | microsomal CLint [2]: 2 µL/min/mg | solubility kinetic: 367 µM (≈ 134 µg/mL) | logD [3]: -0.5 | Papp [4]: 10.7 nm/s
